Measured values as given in the supplement of paper PMC10307832.

Columns and labels:
Experiment in all cases: relative viability (nuclei count vs DMSO), 5 days (fraction); higher = more cells survive
[1] = compound: CCN(CCO)CCCC(C)Nc1ccnc2cc(Cl)ccc12 [Hydroxychloroquine] + CC(=O)Nc1cccc(-n2c(=O)n(C3CC3)c(=O)c3c(Nc4ccc(I)cc4F)n(C)c(=O)c(C)c32)c1 [Trametinib] (partner 0.02 µM)
Outline: (§1)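 Dosing by pin tool came one day after lung cancer cell lines were seeded in 1536-well plates, using either one drug or a fixed anchor-drug dose plus five library-drug doses (not always all listed) in √10 steps. After 5 days, nuclei were counted on 4× images. Relative viability is treated-well nuclei count divided by vehicle-well nuclei count, and values are medians of duplicate plates.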

[2] = compound: CCN(CCO)CCCC(C)Nc1ccnc2cc(Cl)ccc12 [Hydroxychloroquine] + COc1cccc2cc(-c3nc([C@H]4CC[C@H](C(=O)O)CC4)n4ncnc(N)c34)[nH]c12 [OSI-027] (partner 0.5 µM)
Outline: as §1

[3] = compound: CCN(CCO)CCCC(C)Nc1ccnc2cc(Cl)ccc12 [Hydroxychloroquine] + CS(=O)(=O)CCNCc1ccc(-c2ccc3ncnc(Nc4ccc(OCc5cccc(F)c5)c(Cl)c4)c3c2)o1 [Lapatinib] (partner 2 µM)
Outline: as §1

[4] = compound: CCN(CCO)CCCC(C)Nc1ccnc2cc(Cl)ccc12 [Hydroxychloroquine] + C[C@]1(O)C[C@@H](c2nc(-c3ccc4ccc(-c5ccccc5)nc4c3)c3c(N)nccn32)C1 [Linsitinib] (partner 1 µM)
Outline: as §1

Cell Line | relative viability ([1]; first compound 0.5 µM) | relative viability ([1]; first compound 1.581 µM) | relative viability ([1]; first compound 5 µM) | relative viability ([1]; first compound 15.81 µM) | relative viability ([1]; first compound 50 µM) | relative viability ([2]; first compound 0.5 µM) | relative viability ([2]; first compound 1.581 µM) | relative viability ([2]; first compound 5 µM) | relative viability ([2]; first compound 15.81 µM) | relative viability ([2]; first compound 50 µM) | relative viability ([3]; first compound 0.5 µM) | relative viability ([3]; first compound 1.581 µM) | relative viability ([3]; first compound 5 µM) | relative viability ([3]; first compound 15.81 µM) | relative viability ([3]; first compound 50 µM) | relative viability ([4]; first compound 0.5 µM) | relative viability ([4]; first compound 1.581 µM) | relative viability ([4]; first compound 5 µM) | relative viability ([4]; first compound 15.81 µM) | relative viability ([4]; first compound 50 µM)
NCI-H23 | 0.387 | 0.387 | 0.364 | 0.36 | 0.327 | 0.684 | 0.447 | 0.572 | 0.535 | 0.572 | 1.08 | 0.915 | 0.957 | 1.22 | 1.1 | 0.499 | 0.693 | 0.56 | 0.553 | 0.546
NCI-H322M | 0.497 | 0.6 | 0.511 | 0.511 | 0.537 | 0.557 | 0.535 | 0.634 | 0.519 | 0.609 | 0.557 | 0.642 | 0.554 | 0.619 | 0.634 | 0.891 | 1.06 | 0.961 | 0.945 | 0.972
NCI-H358 | 0.128 | 0.122 | 0.132 | 0.131 | 0.127 | 0.666 | 0.616 | 0.783 | 0.83 | 0.991 | 0.487 | 0.432 | 0.412 | 0.486 | 0.476 | 0.795 | 0.704 | 0.712 | 0.69 | 0.743
NCI-H460 | 0.203 | 0.11 | 0.119 | 0.187 | 0.13 | 0.621 | 0.649 | 0.569 | 0.672 | 0.847 | 1.03 | 1.05 | 0.778 | 1.55 | 1.5 | 0.849 | 0.862 | 0.633 | 0.939 | 0.848
NCI-H520 | 0.692 | 0.658 | 0.589 | 0.628 | 0.844 | 0.301 | 0.22 | 0.285 | 0.324 | 0.268 | 0.934 | 0.898 | 0.857 | 0.958 | 0.978 | 1.25 | 0.908 | 0.908 | 1.16 | 0.923
NCI-H596 | 0.652 | 0.926 | 0.769 | 0.797 | 0.795 | 0.755 | 0.672 | 0.625 | 0.761 | 0.883 | 0.969 | 0.995 | 1.04 | 1.05 | 1 | 0.947 | 1.11 | 1.13 | 1.04 | 0.982
NCI-H647 | 0.474 | 0.494 | 0.438 | 0.497 | 0.519 | 0.703 | 0.737 | 0.683 | 0.893 | 0.607 | 1.22 | 1.11 | 1.09 | 1.26 | 1.26 | 1.27 | 1.01 | 1.29 | 1.25 | 1.22
NCI-H650 | 0.877 | 0.876 | 0.965 | 1.03 | 0.969 | 0.566 | 0.557 | 0.61 | 0.555 | 0.545 | 0.894 | 0.862 |  | 0.892 | 1.09 | 0.907 | 0.802 |  | 0.828 | 0.818
NCI-H661 | 0.549 | 0.522 | 0.593 | 0.596 | 0.577 | 0.668 | 0.52 | 0.629 | 0.583 | 0.697 | 0.433 | 0.426 | 0.43 | 0.467 | 0.465 | 0.537 | 0.361 | 0.564 | 0.542 | 0.598
NCI-H727 | 0.369 | 0.361 | 0.396 | 0.405 | 0.382 | 0.672 | 0.639 | 0.796 | 0.555 | 0.632 | 0.893 | 0.842 | 0.699 | 0.814 | 0.931 | 0.279 | 0.276 | 0.306 | 0.305 | 0.357
NCI-H838 | 0.566 | 0.458 | 0.552 | 0.519 | 0.606 | 0.421 | 0.392 | 0.37 | 0.406 | 0.401 | 1.07 | 1.02 | 1.03 | 0.923 | 1.12 | 0.929 | 0.91 | 1.01 | 0.93 | 1.04
NCI-H1355 | 0.374 | 0.413 | 0.435 | 0.376 | 0.388 | 0.509 | 0.301 | 0.371 | 0.332 | 0.44 | 1.03 | 0.88 | 1.02 | 0.887 | 1.06 | 0.872 | 0.879 | 0.896 | 0.809 | 0.892
NCI-H1395 | 1.09 | 0.972 | 0.862 | 1.02 | 0.949 | 0.67 | 0.566 | 0.639 | 0.638 | 0.549 | 1.25 | 1.09 | 0.907 | 0.877 | 0.955 | 0.964 | 0.979 | 1.13 | 1.13 | 1.18
NCI-H1437 | 0.543 | 0.579 | 0.515 | 0.459 | 0.544 | 0.813 | 1.02 | 0.859 | 0.949 | 0.909 | 0.833 | 1.05 | 0.885 | 0.758 | 0.845 | 0.904 | 1.07 | 1.18 | 1.16 | 1.05
NCI-H1651 | 0.832 | 0.894 | 0.834 | 0.864 | 0.879 | 0.659 | 0.69 | 0.677 | 0.786 | 0.781 | 0.811 | 0.925 | 0.729 | 0.979 | 0.988 | 0.909 | 1.1 | 0.975 | 1.14 | 0.963
NCI-H1666 | 0.789 | 0.786 | 0.848 | 0.812 | 0.794 | 0.816 | 0.81 | 0.834 | 0.82 | 0.808 | 0.572 | 0.483 | 0.681 | 0.61 | 0.538 | 0.764 | 0.773 | 0.771 | 0.813 | 0.724
NCI-H1734 | 0.639 | 0.604 | 0.645 | 0.668 | 0.699 | 0.555 | 0.526 | 0.581 | 0.606 | 0.677 | 1.13 | 0.99 | 0.992 | 1.05 | 0.99 | 0.817 | 0.748 | 0.914 | 0.894 | 0.903
NCI-H1755 | 0.743 | 0.729 | 0.776 | 0.726 | 0.732 | 0.797 | 0.617 | 0.628 | 0.649 | 0.574 | 1.06 | 0.875 | 1.02 | 1 | 1.02 | 1.02 | 0.838 | 0.933 | 0.972 | 0.878
NCI-H1792 | 0.496 | 0.464 | 0.474 | 0.387 | 0.378 | 0.797 | 0.729 | 0.715 | 1.04 | 0.825 | 0.889 | 0.923 | 0.831 | 0.793 | 0.93 | 0.534 | 0.588 | 0.583 | 0.536 | 0.56
NCI-H1793 | 0.405 | 0.463 | 0.475 | 0.416 | 0.344 | 0.334 | 0.226 | 0.226 | 0.234 | 0.262 | 0.57 | 0.556 | 0.649 | 0.603 | 0.691 | 0.774 | 0.758 | 1.06 | 0.941 | 0.964
NCI-H1915 | 0.328 | 0.251 | 0.325 | 0.311 | 0.306 | 0.648 | 0.53 | 0.599 | 0.583 | 0.685 | 0.958 | 0.91 | 1 | 1.07 | 1.02 | 1.11 | 1.13 | 1.11 | 1.09 | 1.11
NCI-H1944 | 0.398 | 0.354 | 0.39 | 0.403 | 0.41 | 0.445 | 0.33 | 0.418 | 0.337 | 0.453 | 0.762 | 0.755 | 0.797 | 0.867 | 0.967 | 1.12 | 1.09 | 1.16 | 1.11 | 1.19
NCI-H1975 | 0.36 | 0.322 | 0.341 | 0.38 | 0.321 | 0.846 | 0.74 | 0.711 | 0.868 | 0.991 | 0.989 | 0.867 | 0.874 | 0.891 | 1.18 | 0.938 | 0.949 | 0.92 | 1.04 | 1.06
NCI-H1993 | 0.525 | 0.589 | 0.597 | 0.551 | 0.469 | 0.546 | 0.563 | 0.558 | 0.555 | 0.541 | 0.751 | 0.759 | 0.899 | 0.834 | 0.839 | 0.707 | 0.719 | 0.683 | 0.718 | 0.735
NCI-H2009 | 0.308 | 0.247 | 0.328 | 0.272 | 0.259 | 0.632 | 0.616 | 0.651 | 0.658 | 0.644 | 0.909 | 0.826 | 0.874 | 0.898 | 0.893 | 1.2 | 1.2 | 1.28 | 1.23 | 1.14
NCI-H2023 | 0.529 | 0.492 | 0.504 | 0.53 | 0.503 | 0.468 | 0.336 | 0.402 | 0.338 | 0.442 | 0.793 | 0.652 | 0.691 | 0.905 | 0.994 | 0.618 | 0.65 | 0.697 | 0.643 | 0.728
